Data taken from PubChem BioAssay AID330 (DTP/NCI, 2004).
Values joined by “and” are separate entries in the source; they are usually repeats but may differ in a detail not shown here. Identical values can stand only once. Inconclusive results and toxic doses are left out. The calls were made as follows: active = survival T/C of 150% or more; inactive = T/C below 125% in these data.

Test system: P388 leukemia ip, CD2F1 mice, survival T/C
Experiment: NCI In Vivo Anticancer Drug Screen. Data for tumor model P388 Leukemia (intraperitoneal) in CD2F1 (CDF1) mice
Conditions: endpoint: median survival time, higher = longer survival
Outline: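 Mice carrying the transplanted tumor received test compound or vehicle. Survival was recorded in each group, and the value is the treated-group measurement divided by that of the vehicle-treated control group.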

[1] = dose: 50.0 mg/kg/injection, schedule: Q01DX009 (ip), vehicle: Klucel (hydroxypropylcellulose) (HPC)
[2] = dose: 100.0 mg/kg/injection, schedule: Q01DX009 (ip), vehicle: Klucel (hydroxypropylcellulose) (HPC)
[3] = dose: 200.0 mg/kg/injection, schedule: Q01DX009 (ip), vehicle: Klucel (hydroxypropylcellulose) (HPC)
[4] = dose: 60.0 mg/kg/injection, schedule: Q01DX005 (ip), vehicle: saline with Tween-80
[5] = dose: 120.0 mg/kg/injection, schedule: Q01DX005 (ip), vehicle: saline with Tween-80
[6] = dose: 240.0 mg/kg/injection, schedule: Q01DX005 (ip), vehicle: saline with Tween-80
[7] = dose: 50.0 mg/kg/injection, schedule: Q01DX005 (ip), vehicle: Klucel (hydroxypropylcellulose) (HPC)
[8] = dose: 100.0 mg/kg/injection, schedule: Q01DX005 (ip), vehicle: Klucel (hydroxypropylcellulose) (HPC)
[9] = dose: 100.0 mg/kg/injection, schedule: Q04DX002 (ip), vehicle: saline with Tween-80
[10] = dose: 200.0 mg/kg/injection, schedule: Q04DX002 (ip), vehicle: saline with Tween-80
[11] = dose: 400.0 mg/kg/injection, schedule: Q04DX002 (ip), vehicle: saline with Tween-80

Measured: T/C

CNC(=O)OCC1=C(COC(=O)NC)C2OC1C(C(=O)OC)=C2C(=O)OC
inactive: dose: 3.13 mg/kg/injection, schedule: Q01DX009 (ip), vehicle: distilled water + Tween-80 91 % of control | dose: 12.5 mg/kg/injection, schedule: Q01DX009 (ip), vehicle: distilled water + Tween-80 94 % of control

CC1=CC(=O)C=C/C1=N/S(=O)(=O)c1ccccc1
inactive: dose: 12.5 mg/kg/injection, schedule: Q01DX001 (ip), vehicle: saline with Tween-80 100 % of control | dose: 25.0 mg/kg/injection, schedule: Q01DX001 (ip), vehicle: saline with Tween-80 90 % of control | dose: 50.0 mg/kg/injection, schedule: Q01DX001 (ip), vehicle: saline with Tween-80 100 % of control

Cc1ccc(NC(=O)CO)cc1Cl
inactive: dose: 50.0 mg/kg/injection, schedule: Q01DX009 (ip), vehicle: saline 103 % of control | dose: 100.0 mg/kg/injection, schedule: Q01DX009 (ip), vehicle: saline 103 % of control | dose: 200.0 mg/kg/injection, schedule: Q01DX009 (ip), vehicle: saline 116 % of control

Cc1cccc(NC(=O)Oc2ccc(Cl)c3cccnc23)c1
inactive: [1] 112 % of control | [2] 102 % of control | [3] 114 % of control

CCN(CC)CCO/N=C1\CC(c2ccc(OC)c(OC)c2)Oc2ccccc21 (stereo not given)
inactive: dose: 15.0 mg/kg/injection, schedule: Q01DX005 (ip), vehicle: saline 100 % of control | dose: 30.0 mg/kg/injection, schedule: Q01DX005 (ip), vehicle: saline 114 % of control | dose: 60.0 mg/kg/injection, schedule: Q01DX005 (ip), vehicle: saline 100 % of control and 105 % of control

NNC(=O)C(N)Cc1ccc(O)cc1 (stereo not given)
inactive: dose: 50.0 mg/kg/injection, schedule: Q01DX005 (ip), vehicle: saline 100 % of control | dose: 100.0 mg/kg/injection, schedule: Q01DX005 (ip), vehicle: saline 103 % of control | dose: 200.0 mg/kg/injection, schedule: Q01DX005 (ip), vehicle: saline 115 % of control

O=NNc1ncc([N+](=O)[O-])s1
inactive: dose: 3.12 mg/kg/injection, schedule: Q01DX009 (ip), vehicle: water 103 % of control | dose: 6.25 mg/kg/injection, schedule: Q01DX009 (ip), vehicle: water 97 % of control | dose: 12.5 mg/kg/injection, schedule: Q01DX009 (ip), vehicle: water 94 % of control | dose: 25.0 mg/kg/injection, schedule: Q01DX009 (ip), vehicle: water 100 % of control and 96 % of control | dose: 50.0 mg/kg/injection, schedule: Q01DX009 (ip), vehicle: water 100 % of control and 97 % of control | dose: 100.0 mg/kg/injection, schedule: Q01DX009 (ip), vehicle: water 101 % of control | dose: 200.0 mg/kg/injection, schedule: Q01DX009 (ip), vehicle: water 105 % of control

COc1ccc2c(c1OC)Oc1c(OC)ccc3c1C(C2)N(C)C[C@@H]3O (stereo not given in full)
inactive: dose: 5.75 mg/kg/injection, schedule: Q01DX005 (ip), vehicle: Klucel (hydroxypropylcellulose) (HPC) 103 % of control | dose: 11.5 mg/kg/injection, schedule: Q01DX005 (ip), vehicle: Klucel (hydroxypropylcellulose) (HPC) 109 % of control | dose: 23.0 mg/kg/injection, schedule: Q01DX005 (ip), vehicle: Klucel (hydroxypropylcellulose) (HPC) 100 % of control | dose: 46.0 mg/kg/injection, schedule: Q01DX005 (ip), vehicle: Klucel (hydroxypropylcellulose) (HPC) 99 % of control

OC1c2cc(Cl)cc(Cl)c2OC2(N3CCCC3)CCCCC12 (stereo not given)
inactive: dose: 50.0 mg/kg/injection, schedule: Q01DX009 (ip), vehicle: saline with Tween-80 100 % of control | dose: 100.0 mg/kg/injection, schedule: Q01DX009 (ip), vehicle: saline with Tween-80 96 % of control | dose: 200.0 mg/kg/injection, schedule: Q01DX009 (ip), vehicle: saline with Tween-80 102 % of control

Cc1cccc(C(C#N)C(=O)CCCC(=O)Nc2ccccc2[N+](=O)[O-])c1 (stereo not given)
inactive: [4] 98 % of control | [5] 100 % of control | [6] 94 % of control

Cn1c(C2CCC(=O)N2Cc2ccccc2)n[nH]c1=S (stereo not given)
inactive: [4] 101 % of control | [5] 101 % of control | [6] 100 % of control

CS/C(=N/N=C/c1ccc2ccccc2n1)SS/C(=N/N=C\c1ccc2ccccc2n1)SC
inactive: dose: 50.0 mg/kg/injection, schedule: Q01DX005 (ip), vehicle: saline with Tween-80 88 % of control | dose: 100.0 mg/kg/injection, schedule: Q01DX005 (ip), vehicle: saline with Tween-80 91 % of control | dose: 200.0 mg/kg/injection, schedule: Q01DX005 (ip), vehicle: saline with Tween-80 104 % of control

CCCCCCCCCCCCCCCC[N+](C)(CCO)Cc1cnc[nH]1 (stereo not given)
inactive: dose: 1.56 mg/kg/injection, schedule: Q01DX009 (ip), vehicle: saline 110 % of control | dose: 3.12 mg/kg/injection, schedule: Q01DX009 (ip), vehicle: saline 111 % of control | dose: 6.25 mg/kg/injection, schedule: Q01DX009 (ip), vehicle: saline 118 % of control

CCOc1ccc2ccc3ccc(OCC)nc3c2n1
inactive: [4] 89 % of control | [5] 98 % of control | [6] 95 % of control

CC(=O)N1CC(O)(c2ccccc2)CSc2ccccc21 (stereo not given)
inactive: [7] 95 % of control | [8] 95 % of control | dose: 200.0 mg/kg/injection, schedule: Q01DX005 (ip), vehicle: Klucel (hydroxypropylcellulose) (HPC) 96 % of control

CC(C)=NNC(=O)CNc1cccc(C(F)(F)F)c1
inactive: [4] 97 % of control | [5] 100 % of control | [6] 106 % of control

CCOC(=O)c1c(C(=O)OCC)c(C)n(/N=N/n2c(C)c(C(=O)OCC)c(C(=O)OCC)c2C)c1C
inactive: [7] 103 % of control | [8] 87 % of control

O=C1CCC(=O)c2c1c(O)c1c(O)ccc(O)c1c2O
inactive: dose: 6.25 mg/kg/injection, schedule: Q01DX005 (ip), vehicle: saline with Tween-80 96 % of control | dose: 12.5 mg/kg/injection, schedule: Q01DX005 (ip), vehicle: saline with Tween-80 87 % of control | dose: 25.0 mg/kg/injection, schedule: Q01DX005 (ip), vehicle: saline with Tween-80 94 % of control

CCCCCCCCCCCCCCCCS(=O)(=O)N/N=C(/C)N(C)c1ccc(OC)cc1
inactive: [1] 107 % of control | [2] 107 % of control | [3] 111 % of control

NC(=O)C1C2C=CC(C2)C1C(N)=O (stereo not given)
inactive: dose: 60.0 mg/kg/injection, schedule: Q01DX005 (ip), vehicle: Klucel (hydroxypropylcellulose) (HPC) 97 % of control | dose: 120.0 mg/kg/injection, schedule: Q01DX005 (ip), vehicle: Klucel (hydroxypropylcellulose) (HPC) 103 % of control | dose: 240.0 mg/kg/injection, schedule: Q01DX005 (ip), vehicle: Klucel (hydroxypropylcellulose) (HPC) 97 % of control

N#CC1CC(c2ccc([N+](=O)[O-])cc2)N(c2ccccc2)O1 (stereo not given)
inactive: dose: 100.0 mg/kg/injection, schedule: Q01DX001 (ip), vehicle: saline with Tween-80 95 % of control | [9] 100 % of control and 104 % of control | dose: 200.0 mg/kg/injection, schedule: Q01DX001 (ip), vehicle: saline with Tween-80 94 % of control | [10] 95 % of control and 88 % of control | dose: 400.0 mg/kg/injection, schedule: Q01DX001 (ip), vehicle: saline with Tween-80 92 % of control | [11] 98 % of control and 90 % of control

COc1nc(N)c2cnn(C3CCCCO3)c2n1 (stereo not given)
inactive: [9] 99 % of control | [10] 96 % of control | [11] 101 % of control

COc1cc(C2c3cc4c(cc3OC(C)(O)C2C(C)=O)OCO4)cc(OC)c1OC (stereo not given)
inactive: [4] 87 % of control | [5] 94 % of control | [6] 100 % of control
